Assay results: paper PMC4684281, “Antitumor Effects and Mechanism of Novel Emodin Rhamnoside Derivatives against Human Cancer Cells In Vitro” (PLoS ONE, 2015)
≈ marks a conversion by molar mass, not a printed value. Where “and” joins values, the source holds several entries; their conditions need not be identical. Equal values may be shown once. Read-outs that look alike come from different tables or passages of the source.

Experiments:
A549 cells = assay: MTT cell viability assay, A549; type: cell-based, Human; details: for IC50: A549
Method: (§1) The viability of cancer cells was evaluated by MTT assay. Briefly, cells were inoculated in 96-well culture plates at the density of 1×10^4/well with complete medium containing 10% fetal calf serum in a final volume of 0.2 mL. Cells were incubated at 37°C for at least 24 hours to allow optimal attachment. When the cells reached 60% confluence, they were treated with Cisplatin, HCPT and emodin rhamnopyranosides derivatives in various concentrations, and incubated in a humidity-controlled 5%CO2 incubator at 37°C for 72 hours. Medium were exchanged once every 24 hours. Cell control group and blank group were set up in the same manner, with each group having six parallel wells. Cell survival was assessed by directly adding 22 μL of 5mg/mL MTT to 0.2 mL medium. After three hours, the formazan precipitate was dissolved in 200μL isopropanol per well, and completely mixed under room temperature. Afterwards, the optical density of each well was detected at 570 nm wavelength by iMark microplate reader (Bio-rad,USA). This experiment was repeated at least three times.

OVCAR-3 cells [1] = assay: MTT cell viability assay, OVCAR-3; type: cell-based, Human; details: for IC50: OVCAR-3
Method: as §1

MDCK cells = assay: MTT cell viability assay, MDCK; type: cell-based, Canine; details: Canis lupus familiaris, 72 hours
Method: as §1

HUVEC = assay: MTT cell viability assay, HUVEC; type: cell-based; details: Homo sapiens, MTT at 72h, n=3, mean±S.E.M, read-out: IC50 for EM-d-Rha, HUVEC
Method: as §1

K562 cells = assay: MTT cell viability assay, K562; type: cell-based; details: Homo sapiens
Method: as §1

OVCAR-3 cells [2] = assay: Flow cytometry apoptosis analysis (Annexin V/7-AAD), OVCAR-3; type: cell-based, Human; details: 48h (Fig 8 legend: 72h); for Late apoptosis: control 4.87±1.42; for Early apoptosis: control 13.01±5.81; for Living cell: control 81.36±8.14
HepG2 cells [3] = assay: Cell cycle analysis (PI staining); type: cell-based, Human; details: 48h; for Percentage of cell cycle distribution, G2/M: control 9.68±3.46%; for Percentage of cell cycle distribution, G0/G1: control 67.48±3.94%
Method: HepG2 cells in logarithmic growth phase were inoculated in 10cm culture plates at density of 5×10^5 cells and incubated overnight and allowed to attach. After being exposed to EM-d-Rha at specific concentrations for 48h, cells were harvested and washed with cold PBS twice. Then the collected cells were fixed with 1mL PBS and 3mL cold 100% ethanol at 4°C overnight. After that, the cells were again harvested by centrifugation at 300×g for 10 min. The cells were washed with cold PBS and re-suspended in 450 μL PBS, and then treated with 50μL ribonuclease (RNase,10mg/mL) at 37°C for 15min. 500μL of propidium iodide (PI, 50μg/ml) was added to the samples. After the cells were incubated for 30 min at 4°C in the dark, the cell cycle distribution was measured using an BD FACSCalibur Flow cytometer (BD Biosciences, USA), and 10,000cells were counted for each sample. The percentage of cells in different phases of the cell cycle was analyzed by flow Jo (BD Biosciences, USA). The experiment was repeated three times.

[4] = tested on: HepG2 mitochondrial membrane potential (ΔΨm); assay: Mitochondrial membrane potential (Rhodamine123, flow cytometry); type: cell-based, Human; details: HepG2, 5.0μM
Method: HepG2 cells were inoculated in 10cm diameter culture plates at a density of 5×10^5 cells, and allowed to attach at 37°C for 24 hours. Afterwards, cells were treated with 5.0μM EM-d-Rha for 0, 24h, 48h and 72h respectively. Cells were incubated in a humidified incubator supplied with 5% CO2 at 37°C for 72 hours. Medium were exchanged once every 24 hours. The harvested cells of each sample were suspended in 500μL PBS before adding 5 μL Rhodamine123. Then samples were incubated at 37°C in the dark for 15 min. Cells were again collected by centrifugation at 300×g for 5 minutes and the supernatant was discarded. The cell pellets were washed twice with 4°C PBS. Finally cells of all samples were resuspended in 500μL PBS. Before performing assay, adjusting excitation wavelength and emission wavelength to 480nm, 520nm respectively, the ΔΨm changes of HepG2 mitochondrial were measured with a flow cytometer (BD FACSCalibur, BD Biosciences, US). The experiment was repeated at least three times.

HepG2 cells [5] = assay: DNA ladder assay; type: cell-based, Human; details: HepG2, 2.5μM, 5.0μM and 10.0μM
Method: DNA ladder formation is an important criterion to determine cells apoptosis. To confirm the apoptosis induction effect, the analysis of DNA fragmentation was conducted. HepG2 cells in logarithmic growth phase were inoculated in 10cm diameter culture plates at a density of 5×10^5 cells with 12 mL complete medium containing 10% fetal calf serum, and allowed to attach at 37°C for 24 hours. Afterwards, cells were treated with EM-d-Rha and Cisplatin at a specific concentration. Cells were cultured and harvested as described previously. Finally, DNA of all samples was extracted using the apoptosis DNA ladder detection kit following the manufacturer’s instructions. The DNA fragmentation was assayed by electrophoresis on a 1.5% agarose gel containing […] ethidium bromide (EtBr) at 5V/cm for 2.5hours and photographed under ultraviolet. The size of the DNA fragmentation was compared with the marker (molecular weight standard).

[6] = OVCAR-3, 10μM, listed as EM-d-Rha

With `CC(=O)O[C@@H]1[C@@H](O[C@@H]2O[C@@H](C)[C@H](O)[C@@H](OC(C)=O)[C@H]2OC(C)=O)[C@H](C)O[C@@H](Oc2cc(O)c3c(c2)C(=O)c2cc(C)cc(O)c2C3=O)[C@@H]1OC(C)=O` [S-8, 3-(2”,3”-Di-O-acetyl-α-L-rhamnopyranosyl-(1→4)-2’,3’-di-O-acetyl-α-L-rhamnopyranosyl)-emodin] the IC50 (A549 cells; Homo sapiens, MTT at 72h, n=3, mean±S.E.M, read-out: IC50 for EM-d-Rha, A549) was 1.75 ± 0.63 µM, the IC50 (A549 cells; Homo sapiens, MTT, 72 hours, read-out: IC50 values, A549) was 2.6 µg/mL and the inhibition at 0.1 µM (A549 cells; Homo sapiens, A549, 0.1μM, MTT 72h, read-out: The inhibition rate of EM-d-Rha) was 13.95 ± 0.02%. It also gave an inhibition at 0.5 µM (A549 cells; Homo sapiens, A549, 0.5μM, MTT 72h, read-out: The inhibition rate of EM-d-Rha) of 27.3 ± 2.19%, an inhibition at 2.5 µM (A549 cells; Homo sapiens, A549, 2.5μM, MTT 72h, read-out: The inhibition rate of EM-d-Rha) of 33.7 ± 1.46% and an inhibition at 12.5 µM (A549 cells; Homo sapiens, A549, 12.5μM, MTT 72h, read-out: The inhibition rate of EM-d-Rha) of 63.5 ± 1.03%. For the same molecule, the inhibition at 62.5 µM (A549 cells; Homo sapiens, A549, 62.5μM, MTT 72h, read-out: The inhibition rate of EM-d-Rha) was 75.96 ± 0.58%, the “Decrease of IC50 compared to the IC50 of emodin, A549” value (A549 cells; from Table 1) was 7.52 fold and the IC50 (OVCAR-3 cells [1]; Homo sapiens, MTT at 72h, n=3, mean±S.E.M, read-out: IC50 for EM-d-Rha, OVCAR-3) was 2.26 ± 0.92 µM. For the same molecule, the IC50 (OVCAR-3 cells [1]; Homo sapiens, MTT, 72 hours, read-out: IC50 values, OVCAR-3) was 0.61 µg/mL, the inhibition at 0.1 µM (OVCAR-3 cells [1]; Homo sapiens, OVCAR-3, 0.1μM, MTT 72h, read-out: The inhibition rate of EM-d-Rha) was 1.4 ± 0.21% and the inhibition at 0.5 µM (OVCAR-3 cells [1]; Homo sapiens, OVCAR-3, 0.5μM, MTT 72h, read-out: The inhibition rate of EM-d-Rha) was 2.95 ± 1.12%. The inhibition at 2.5 µM (OVCAR-3 cells [1]; Homo sapiens, OVCAR-3, 2.5μM, MTT 72h, read-out: The inhibition rate of EM-d-Rha) was 66 ± 1.27%, the inhibition at 12.5 µM (OVCAR-3 cells [1]; Homo sapiens, OVCAR-3, 12.5μM, MTT 72h, read-out: The inhibition rate of EM-d-Rha) was 83.6 ± 1.15% and the inhibition at 62.5 µM (OVCAR-3 cells [1]; Homo sapiens, OVCAR-3, 62.5μM, MTT 72h, read-out: The inhibition rate of EM-d-Rha) was 90.64 ± 0.74%. The “Decrease of IC50 compared to the IC50 of emodin, OVCAR-3” value (OVCAR-3 cells [1]; from Table 1) was 42.3 fold, the IC50 (MDCK cells) was 18.5 µg/mL (≈ 25.3 µM) and the IC50 (HUVEC) was 18.7 ± 3.9 µM. For the same molecule, the IC50 (K562 cells; K562, MTT at 72h, n=3, mean±S.E.M, read-out: IC50 for EM-d-Rha, K562) was 2.8 ± 0.11 µM, the inhibition at 0.1 µM (K562 cells; K562, 0.1μM, MTT 72h, read-out: The inhibition rate of EM-d-Rha) was 0% and the inhibition at 0.5 µM (K562 cells; K562, 0.5μM, MTT 72h, read-out: The inhibition rate of EM-d-Rha) was 15.1 ± 1.13%. For the same molecule, the inhibition at 2.5 µM (K562 cells; K562, 2.5μM, MTT 72h, read-out: The inhibition rate of EM-d-Rha) was 45.86 ± 0.11%, the inhibition at 12.5 µM (K562 cells; K562, 12.5μM, MTT 72h, read-out: The inhibition rate of EM-d-Rha) was 78.74 ± 0.01% and the inhibition at 62.5 µM (K562 cells; K562, 62.5μM, MTT 72h, read-out: The inhibition rate of EM-d-Rha) was 80.64 ± 0.03%. It also gave a Late apoptosis (OVCAR-3 cells [2]; OVCAR-3, 2.5μM) of 3.30±2.95%, an Early apoptosis (OVCAR-3 cells [2]; OVCAR-3, 2.5μM) of 70.60±23.06 % and a Living cell (OVCAR-3 cells [2]; OVCAR-3, 2.5μM) of 25.82±20.14 %. The Late apoptosis (OVCAR-3 cells [2]; OVCAR-3, 5μM) was 0.81±0.05 %, the Early apoptosis (OVCAR-3 cells [2]; OVCAR-3, 5μM) was 90.52±0.20 % and the Living cell (OVCAR-3 cells [2]; OVCAR-3, 5μM) was 8.60±0.19 %. The Late apoptosis (OVCAR-3 cells [2]; OVCAR-3, 10μM) was 0.35±0.06 %, the Early apoptosis (OVCAR-3 cells [2]; [6]) was 95.09% and 95.09±1.03 % and the Living cell (OVCAR-3 cells [2]; [6]) was 4.53% and 4.53±0.99 %. For the same molecule, the “Percentage of cell cycle distribution, G2/M” value (“Percentage … G2/M” for short) (HepG2 cells [3]; HepG2, 2.5μM) was 7.01±1.73%, the “Percentage of cell cycle distribution, S” value (HepG2 cells [3]; HepG2, 2.5μM, control 23.19±2.18%, listed as EM-d-Rha) was 28.59% and 28.59±3.75% and the “Percentage of cell cycle distribution, G0/G1” value (from here on “Percentage … G0/G1”) (HepG2 cells [3]; HepG2, 2.5μM) was 61.37±2.16%. For the same molecule, the “Percentage … G2/M” value (HepG2 cells [3]; HepG2, 5.0μM) was 10.31±3.08%, the “Percentage … G0/G1” value (HepG2 cells [3]; HepG2, 5.0μM) was 51.03±8.84% and the “Percentage … G2/M” value (HepG2 cells [3]; HepG2, 10.0μM) was 7.96±2.07%. The “Percentage … G0/G1” value (HepG2 cells [3]; HepG2, 10.0μM) was 52.35±9.37%, the “Percentage of ΔΨm (Vs. control group)” value ([4]; 24 h) was 82.22±5.97 % and the “Percentage of ΔΨm (Vs. control group)” value ([4]; 48 h) was 53.21±9.71 %. For the same molecule, the “Percentage of ΔΨm (Vs. control group)” value ([4]; 72 h, listed as EM-d-Rha) was 31.77±2.84% and the “DNA fragmentation (agarose gel electrophoresis)” value (HepG2 cells [5]) was “typical ladder or fragmentation shape”.
